In patent US11028061B2, “Modulators of myocyte lipid accumulation and insulin resistance and methods of use thereof” (Sanford Burnham Prebys Medical Discovery Institute, priority 2015, dated 2021):
pIC50: −log10 of the molar value.

These compounds were tested on primary murine skeletal myocytes (assay: TAG accumulation in primary murine skeletal myocytes). Settings: Mus musculus, read-out: Activity Score (IC50), triacylglyceride (TAG) accumulation.
Type: cell-based

Row | Structure (SMILES) | pIC50
1 | COc1ccc(-c2csc(C(=O)Nc3ccc(OCC(=O)N4CCOCC4)c(OC)c3)n2)cc1 [Cpd. 91, N-(3-methoxy-4-(2-morpholino-2-oxoethoxy)phenyl)-4-(4-methoxyphenyl)thiazole-2-carboxamide] | < 5.00
2 | CCNc1ccc(C(=O)Nc2nc(-c3ccc(OC)cc3)cs2)cc1OCCO [Cpd. 99, 4-(ethylamino)-3-(2-hydroxyethoxy)-N-(4-(4-methoxyphenyl)thiazol-2-yl)benzamide] | 5.00 to 6.00

Same assay, conditions: Mus musculus; primary murine skeletal myocytes; read-out: Activity Score (IC50), triacylglyceride (TAG) accumulation

Row | pIC50 | Structure (SMILES)
3 | > 6.00 | COc1ccc(-c2csc(NC(=O)c3ccc(OCC(=O)N(C)C)cc3)n2)c(Cl)c1 [Cpd. 60, N-(4-(2-chloro-4-methoxyphenyl)thiazol-2-yl)-4-(2-(dimethylamino)-2-oxoethoxy)benzamide]
4 | > 6.00 | COc1ccc(-c2csc(NC(=O)c3ccc(NCC(=O)N4CCOCC4)c(OC)c3)n2)cc1 [Cpd. 75, 3-methoxy-N-(4-(4-methoxyphenyl)thiazol-2-yl)-4-((2-morpholino-2-oxoethyl)amino)benzamide]
5 | 5.00 to 6.00 | COc1ccc(-c2csc(NCc3ccc(OCC(=O)N4CCOCC4)c(OC)c3)n2)cc1 [Cpd. 89, 2-(2-methoxy-4-(((4-(4-methoxyphenyl)thiazol-2-yl)amino)methyl)phenoxy)-1-morpholinoethan-1-one]
6 | 5.00 to 6.00 | COc1ccc(-c2csc(NC(=O)c3ccc(OCCN4CCOCC4)c(OC)c3)n2)cc1 [Cpd. 90, 3-methoxy-N-(4-(4-methoxyphenyl)thiazol-2-yl)-4-(2-morpholinoethoxy)benzamide]
7 | < 5.00 | COc1ccc(-c2csc(NC(=O)c3ccc(OCC(=O)N4CCOCC4)cn3)n2)cc1 [Cpd. 92, N-(4-(4-methoxyphenyl)thiazol-2-yl)-5-(2-morpholino-2-oxoethoxy)picolinamide]
8 | < 5.00 | COc1ccc(-c2csc(NC(=O)c3ccc(OCC(=O)N4CCOCC4)nc3)n2)cc1 [Cpd. 93, N-(4-(4-methoxyphenyl)thiazol-2-yl)-6-(2-morpholino-2-oxoethoxy)nicotinamide]
9 | 5.00 to 6.00 | COc1ccc(-c2csc(NC(=O)c3cccc(OCC(=O)N4CCOCC4)c3)n2)cc1 [Cpd. 94, N-(4-(4-methoxyphenyl)thiazol-2-yl)-3-(2-morpholino-2-oxoethoxy)benzamide]
10 | > 6.00 | CNC(=O)CNc1ccc(C(=O)Nc2nc(-c3ccc(OC)cc3)cs2)cc1 [compound 67, N-(4-(4-methoxyphenyl)thiazol-2-yl)-4-((2-(methylamino)-2-oxoethyl)amino)benzamide]
11 | > 6.00 | COc1ccc(-c2csc(NC(=O)c3ccc(NCC(=O)N(C)C)cc3)n2)cc1 [compound 68, 4-((2-(dimethylamino)-2-oxoethyl)amino)-N-(4-(4-methoxyphenyl)thiazol-2-yl)benzamide]
12 | < 5.00 | COCCNC(=O)CNc1ccc(C(=O)Nc2nc(-c3ccc(OC)cc3)cs2)cc1 [compound 69, 4-((2-((2-methoxyethyl)amino)-2-oxoethyl)amino)-N-(4-(4-methoxyphenyl)thiazol-2-yl)benzamide]
13 | > 6.00 | CNC(=O)CNc1ccc(C(=O)Nc2nc(-c3ccc(OC)cc3Cl)cs2)cc1 [compound 71, N-(4-(2-chloro-4-methoxyphenyl)thiazol-2-yl)-4-((2-(methylamino)-2-oxoethyl)amino)benzamide]
14 | > 6.00 | COc1ccc(-c2csc(NC(=O)c3ccc(NCC(=O)N(C)C)cc3)n2)c(Cl)c1 [compound 72, N-(4-(2-chloro-4-methoxyphenyl)thiazol-2-yl)-4-((2-(dimethylamino)-2-oxoethyl)amino)benzamide]
15 | > 6.00 | COCCNC(=O)CNc1ccc(C(=O)Nc2nc(-c3ccc(OC)cc3Cl)cs2)cc1 [compound 73, N-(4-(2-chloro-4-methoxyphenyl)thiazol-2-yl)-4-((2-((2-methoxyethyl)amino)-2-oxoethyl)amino)benzamide]
16 | 5.00 to 6.00 | COc1ccc(-c2csc(NC(=O)c3ccc(N)c(OC)c3)n2)cc1 [compound 77, 4-amino-3-methoxy-N-(4-(4-methoxyphenyl)thiazol-2-yl)benzamide]
17 | < 5.00 | COc1ccc(-c2cnc(NC(=O)c3ccc(OCC(=O)N4CCOCC4)c(OC)c3)s2)cc1 [compound 80, 3-methoxy-N-(5-(4-methoxyphenyl)thiazol-2-yl)-4-(2-morpholino-2-oxoethoxy)benzamide]

The remaining lines, values behind:

Row | Structure (SMILES) | pIC50
18 | COc1ccc(-c2csc(NC(=O)CCC(=O)N3CCOc4ccccc43)n2)cc1 [Cpd. 81, 4-(2,3-dihydro-4H-benzo[b][1,4]oxazin-4-yl)-N-(4-(4-methoxyphenyl)thiazol-2-yl)-4-oxobutanamide] | > 6.00
19 | COc1ccc(-c2csc(NC(=O)CCC(=O)N3CCOCC3)n2)cc1 [Cpd. 82, N-(4-(4-methoxyphenyl)thiazol-2-yl)-4-morpholino-4-oxobutanamide] | 5.00 to 6.00
20 | COc1cc(C(=O)Nc2cccc(-c3ccccc3)c2)ccc1OCC(=O)N1CCOCC1 [Cpd. 83, N-([1,1′-biphenyl]-3-yl)-3-methoxy-4-(2-morpholino-2-oxoethoxy)benzamide] | < 5.00
21 | COc1cc(C(=O)Nc2nc(-c3ccccc3)c(Cc3ccccc3)s2)ccc1OCC(=O)N1CCOCC1 [Cpd. 84, N-(5-benzyl-4-phenylthiazol-2-yl)-3-methoxy-4-(2-morpholino-2-oxoethoxy)benzamide] | > 6.00
22 | COc1cc(C(=O)Nc2nc(Cc3ccccc3)cs2)ccc1OCC(=O)N1CCOCC1 [Cpd. 85, N-(4-benzylthiazol-2-yl)-3-methoxy-4-(2-morpholino-2-oxoethoxy)benzamide] | 5.00 to 6.00
23 | O=C(Nc1nc2ccccc2s1)c1ccc(OCC(=O)N2CCOCC2)cc1 [Cpd. 87, N-(benzo[d]thiazol-2-yl)-4-(2-morpholino-2-oxoethoxy)benzamide] | < 5.00
24 | COc1ccc2nc(NC(=O)c3ccc(OCC(=O)N4CCOCC4)cc3)sc2c1 [Cpd. 88, N-(6-methoxybenzo[d]thiazol-2-yl)-4-(2-morpholino-2-oxoethoxy)benzamide] | 5.00 to 6.00
25 | O=C(Nc1nc(-c2ccccc2)cs1)c1cccc(OCC(=O)N2CCOCC2)c1 [Cpd. 95, 3-(2-morpholino-2-oxoethoxy)-N-(4-phenylthiazol-2-yl)benzamide] | 5.00 to 6.00
26 | COc1cccc(-c2csc(NC(=O)c3cccc(OCC(=O)N4CCOCC4)c3)n2)c1 [Cpd. 96, N-(4-(3-methoxyphenyl)thiazol-2-yl)-3-(2-morpholino-2-oxoethoxy)benzamide] | 5.00 to 6.00
27 | COc1ccc(-c2csc(NC(=O)C3CCC(OCC(=O)N4CCOCC4)CC3)n2)cc1 (stereo not shown) [Cpd. 97, N-(4-(4-methoxyphenyl)thiazol-2-yl)-4-(2-morpholino-2-oxoethoxy)cyclohexane-1-carboxamide] | < 5.00
28 | COc1ccc(Cc2cnc(NC(=O)c3ccc(OCC(=O)N4CCOCC4)c(OC)c3)s2)cc1 [Cpd. 98, 3-methoxy-N-(5-(4-methoxybenzyl)thiazol-2-yl)-4-(2-morpholino-2-oxoethoxy)benzamide] | 5.00 to 6.00
29 | COc1cc(C(=O)Nc2ncc(Cc3cccc(C(F)(F)F)c3)s2)ccc1OCC(=O)N1CCOCC1 [Cpd. 100, 3-methoxy-4-(2-morpholino-2-oxoethoxy)-N-(5-(3-(trifluoromethyl)benzyl)thiazol-2-yl)benzamide] | < 5.00
30 | COc1ccc(-c2csc(NC(=O)c3ccc(NCC(=O)N4CCOCC4)cc3)n2)c(Cl)c1 [compound 70, N-(4-(2-chloro-4-methoxyphenyl)thiazol-2-yl)-4-((2-morpholino-2-oxoethyl)amino)benzamide] | > 6.00
31 | COc1cc(C(=O)Nc2ncc(-c3ccccc3)s2)ccc1OCC(=O)N1CCOCC1 [compound 79, 3-methoxy-4-(2-morpholino-2-oxoethoxy)-N-(5-phenylthiazol-2-yl)benzamide] | < 5.00
